Experimental data: patent US11014961B2, “Self-labeling miniproteins and conjugates comprising them” (priority 2017, dated 2021)
No end group written: not given here.

Experiments:
Format in all cases: biochemical
[1] = Labeling conversion of MP with the modified capture agent (LC-MS TIC); conditions: 0.5 mM mCA, 0.1 mM MP, 5 mM TCEP, 1× selection buffer, pH 7.4
Experimental: A solution consisting of 5 mM carboxy-(PEG)12-thiol, 500 mM pentafluorophenyl sulfide, 20 mM triphenylphosphine and 230 mM DIEA in acetonitrile was vortexed and left at room temperature for 4 hours. The reaction was then diluted with 10.6× volume of 95% A: 5% B, solid phase extracted and lyophilized. The resulting material was analyzed by LCMS (method 2). This product will later be referred to as mCA (modified CA).
All 10 putative self-labeling MPs were chemically synthesized (MP01 and MP02 were additionally made with the full C-terminal constant region). To determine the importance of the C-terminal tag, a kinetic analysis on MP01 was conducted comparing the sequence with and without the tag. […] The remainder of the MPs all reacted with varying second order rate constants and to differing product distributions from multiple cysteine labeling sites (Table 3). […] Of the sequences containing multiple cysteines, all reacted to differing extents. […] On the other hand, MP08 (SEQ ID NO: 53) reacted sluggishly (0.04 μM^−1 s^−1) to produce singly and doubly labeled species. The sole sequence containing three cysteines, MP05 (SEQ ID NO: 44), yielded a mixture of labeled species within an 8-hour reaction—primarily existing with either 2 or 3 labels with a rapid initial labeling process (0.93±0.11 μM^−1 s^−1). […]

[2] = Second order rate constant of the reaction between miniprotein (MP) and capture agent (CA), LC-MS TIC peak integration; conditions: for Second order rate constant: 0.1 mM MP, 0.5 mM CA
[3] = Labeling conversion of MP with the selection capture agent (LC-MS TIC); conditions: 0.5 mM CA, 0.1 mM MP, 5 mM TCEP, 1× selection buffer, pH 7.4
Experimental: All 10 putative self-labeling MPs were chemically synthesized (MP01 and MP02 were additionally made with the full C-terminal constant region). To determine the importance of the C-terminal tag, a kinetic analysis on MP01 was conducted comparing the sequence with and without the tag. […] The remainder of the MPs all reacted with varying second order rate constants and to differing product distributions from multiple cysteine labeling sites (Table 3). […] Of the sequences containing multiple cysteines, all reacted to differing extents. […] On the other hand, MP08 (SEQ ID NO: 53) reacted sluggishly (0.04 μM^−1 s^−1) to produce singly and doubly labeled species. The sole sequence containing three cysteines, MP05 (SEQ ID NO: 44), yielded a mixture of labeled species within an 8-hour reaction—primarily existing with either 2 or 3 labels with a rapid initial labeling process (0.93±0.11 μM^−1 s^−1). Finally, MP01, 07 and 10 (SEQ ID NOs: 13, 52, and 59, respectively) were probed via proteolytic digest-LC-MS/MS analysis, this confirmed that the cysteines were labeled and not an alternative amino acid. […] Conditions used were 0.5 mM CA, 0.1 mM MP, 5 mM TCEP, 1× selection buffer, pH 7.4.

MHQKYKMTKDCFFSFLAHHKKRKLYPMSG-NH2 [MP01]
conversion with modified CA (mCA) [1]: 91%
Second order rate constant ([2]; 5 mM TCEP, 1× selection buffer pH 7.4, RT): 0.34 M⁻¹ s⁻¹
Second order rate constant ([2]; 5 mM TCEP, 1× selection buffer pH 7.4, RT, a: average of three MP concentrations, c: labeled 1-3 times, d: labeled 1-2 times): 0.34 ± 0.06^a/ M^−1 s^−1
second order rate constant, second MP01 construct ([2]; MP01 construct with C-terminal tag (per Table 3 footnote b), standard conditions): 0.28 M⁻¹ s⁻¹
Second order rate constant ([2]; footnote b: construct with the full length C-terminal region (-SGSLGHHHHHHRL)): 0.28 ± 0.02^b M^−1 s^−1
conversion with selection CA [3]: 83%
